Test results published in paper PMC9573667, “Efficient Oxidative Dearomatisations of Substituted Phenols Using Hypervalent Iodine (III) Reagents and Antiprotozoal Evaluation of the Resulting Cyclohexadienones against T. b. rhodesiense and P. falciparum Strain NF54” (Molecules, 2022).
Like-named read-outs stand apart in the source and are kept apart here.

Columns and labels:
[1] = test system: T. brucei rhodesiense, strain STIB900 trypomastigote forms; assay: In vitro growth inhibition assay of Trypanosoma brucei rhodesiense STIB900 (Alamar blue); assay type: cell-based; settings: for IC50: Trypanosoma brucei; for ligand efficiency lipophilic price (LELP), T. brucei rhodesiense / lipophilic ligand efficiency (LLE), T. brucei rhodesiense: based on IC50 values in nmol/L, DataWarrior 5.5.0
Method: Trypanocidal activity was determined in vitro against axenically grown bloodstream-forms of T. b. rhodesiense STIB900 as described in Refs. [76, 77] and detailed in the Supplementary Materials. Parasite proliferation was assessed via fluorescence of the redox-sensitive dye resazurin (Alamar blue). The drug melarsoprol was used as the positive control. […]
1.2 In vitro growth inhibition assay of Trypanosoma brucei rhodesiense
Trypanosoma brucei rhodesiense, STIB 900 strain, and the standard drug, melarsoprol, were used for the assay. Minimum Essential Medium (50 μL) supplemented with 25 mM HEPES, 1g/L additional glucose, 1% MEM non-essential amino acids (100x), 0.2 mM 2-mercaptoethanol, 1 mM Na-pyruvate and 15% heat-inactivated horse serum was added to each well of a 96-well microtiter plate. Serial drug dilutions of 11 three-fold dilution steps covering a range from 100 to 0.002 μg/mL were prepared. Then […]
mL double-distilled water) was then added to each well and incubation continued for a further 2–4 h.
Then, the plates were read with a Spectramax Gemini XS microplate fluorometer (Molecular Devices Cooperation, Sunnyvale, CA, USA) using an excitation wavelength of 536 nm and an emission wavelength of 588 nm. The IC50 values were calculated from the sigmoidal inhibition curves using the microplate reader software Softmax Pro (Molecular Devices Cooperation, Sunnyvale, CA, USA).
Melarsoprol was used as control. […]

[2] = test system: L6 cells rat skeletal myoblasts; assay: Cytotoxicity against L6 cells (Alamar blue); assay type: cell-based; settings: read-out: Cyt. L6 IC50
Method: The antiprotozoal activity of 5a,b has already been described in the literature. […] Cytotoxicity was determined using L6 rat skeletal myoblasts to calculate a selectivity index for each parasite (SI = IC50(L6)/IC50(parasite)).
Cytotoxicity was determined in vitro against rat L6 myoblasts as described; details are listed in the supplement. […]
1.3 Cytotoxicity against L6 cells
Assays were performed in 96-well microtiter plates, each well containing 100 μL of RPMI 1640 medium supplemented with 1% L-glutamine (200 mM) and 10% foetal bovine serum, and 4000 L6 cells (a […] cell line derived from rat skeletal myoblasts). Serial drug dilutions of 11 threefold dilution steps covering a range from 100 to 0.002 μg/mL were prepared. After 72 h of incubation, the plates were inspected under an inverted microscope to assure growth of the controls and sterile conditions. 10 μL of Alamar Blue solution was then added to each well and the plates incubated for another 2 h. Then the plates were read with a Spectramax Gemini XS microplate fluorometer (Molecular Devices Cooperation, Sunnyvale, CA, USA) using an excitation wavelength of 536 nm and an emission wavelength of 588 nm.
The IC50 values were calculated by linear regression from the sigmoidal dose inhibition curves using the microplate reader software Softmax Pro (Molecular Devices Cooperation, Sunnyvale, CA, USA).
Podophyllotoxin (Sigma P4405) was used as control.

[3] = test system: P. falciparum, strain NF54, erythrocytic stages; assay: In vitro growth inhibition assay of Plasmodium falciparum NF54 ([3H]-hypoxanthine incorporation); assay type: cell-based; settings: for IC50: Plasmodium falciparum; for ligand efficiency lipophilic price (LELP), P. falciparum / lipophilic ligand efficiency (LLE), P. falciparum: based on IC50 values in nmol/L, DataWarrior 5.5.0
Method: Antimalarial activity was determined in vitro against the erythrocytic stages of P. falciparum using the drug-sensitive strain NF54. Parasite proliferation was assessed by incorporation of [^3H]-hypoxanthine using a modified version of [75]; for details, please refer to the Supplementary Materials. The positive control was chloroquine.
1. Experimental of biological testing
1.1 In vitro growth inhibition assay of Plasmodium falciparum NF54
Plasmodium falciparum, strain NF54, erythrocytic stages, and the standard drug, chloroquine, were used for the assay. The parasite cultures incubated in RPMI 1640 medium with 5% AlbuMAXTM (without hypoxanthine) were exposed to serial drug dilutions in microtiter plates. After 48 h of incubation at 37 °C in a reduced oxygen atmosphere, 0.5 μCi [3H]-hypoxanthine was added to each well of the plate. Cultures were incubated for a further 24 h before they were harvested onto glass-fiber filters and washed with distilled water. The radioactivity was counted using a BetaplateTM liquid scintillation […]
counter (Wallac, Zurich). […]
concentration and expressed as percentage of the untreated controls. IC50 values were calculated from the sigmoidal inhibition curves using Microsoft Excel. Chloroquine was used as control. […]

[4] = strain STIB900 trypomastigote forms, means of two to three measurements, SD <5%, read-out: T. b. rhod. IC50
[5] = L6 rat skeletal myoblasts, 72 h
[6] = NF54, strain NF54, erythrocytic stages, means of two to three measurements, SD <5%, read-out: P. falc. IC50

Row | Compound | IC50 [1, 4] [nM] | ligand efficiency lipophilic price (LELP), T. brucei rhodesiense [1] | lipophilic ligand efficiency (LLE), T. brucei rhodesiense [1] | IC50 [2, 5] [nM] | IC50 [3, 6] [nM] | ligand efficiency lipophilic price (LELP), P. falciparum [3] | lipophilic ligand efficiency (LLE), P. falciparum [3] | IC50 ([1]; STIB900, stated in text in nM, read-out: T. brucei rhodesiense IC50) [nM] | melting point [°C] | IC50 ([2]; Rattus norvegicus, L6, 72 h) [nM] | IC50 ([1]; read-out: T. b. rhod. IC50) [nM] | IC50 ([1]; read-out: T. brucei rhodesiense IC50) [nM] | IC50 ([3]; NF54, read-out: P. falc. IC50) [nM]
1 | COC(=O)CC1(O)C=CC(=O)C=C1 [Compound 4a, Methyl 2-(1-hydroxy-4-oxocyclohexa-2,5-dien-1-yl)acetate] | 588 | -0.2362 | 6.3859 | 391 | 969 | -0.2447 | 6.1690 | – | – | – | – | – | –
2 | O=C1C=CC(=O)c2cc(F)ccc21 [Compound 5d, 6-Fluoro-1,4-dihydronaphthalene-1,4-dione] | 93 | 2.0757 | 5.4913 | 2170 | 677 | 2.3657 | 4.6292 | < 100 | 119 to 120 | – | – | – | –
3 | COc1cc([C@@H]2c3cc4c(cc3[C@H](O)[C@H]3COC(=O)[C@H]23)OCO4)cc(OC)c1OC [Pod., podophyllotoxin, reference compound] | – | – | – | – | – | – | – | – | – | 7 | – | – | –
4 | O=C1C=CC2(C=C1)CCC(=O)O2 [Compound 4h, 1-Oxaspiro [4.5]deca-6,9-diene-2,8-dione] | 4890 | 0.1253 | 5.2346 | 425 | – | 0.1197 | 5.4846 | – | 105 to 106 | – | – | – | –
5 | COC(=O)CC1(O)C=CC(=O)C(F)=C1 (stereo not drawn) [Compound 4b, Methyl 2-(3-fluoro-1-hydroxy-4-oxocyclohexa-2,5-dien-1-yl)acetate] | 78 | – | 7.0619 | 657 | 644 | 0.07582 | 6.1451 | – | – | – | – | – | –
6 | COC(=O)CC1(O)C=C(Br)C(=O)C(Br)=C1 [Compound 4f, Methyl 2-(3,5-dibromo-1-hydroxy-4-oxocyclohexa-2,5-dien-1-yl)acetate] | 24 | 1.3564 | 6.6745 | 199 | 391 | 1.613 | 5.4625 | – | – | – | – | – | –
7 | O=C1C=C(Cc2ccccc2)C(=O)c2ccccc21 [Compound 5c, 2-Benzyl-1,4-dihydronaphthalene-1,4-dione] | – | – | – | – | – | – | – | – | – | 22000 | 80 | < 100 | 917
8 | COC(=O)CCC1(O)C=CC(=O)C=C1 [Compound 4g, Methyl 3-(1-hydroxy-4-oxocyclohexa-2,5-dien-1-yl)propanoate] | 4870 | 0.5746 | 5.0134 | > 100000 | – | 0.5999 | 4.7892 | – | 49 to 50 | – | – | – | –
9 | COC(=O)CC1(O)C=CC(=O)C(Br)=C1 (stereo not drawn) [Compound 4d, Methyl 2-(3-bromo-1-hydroxy-4-oxocyclohexa-2,5-dien-1-yl)acetate] | 42 | 0.5464 | 6.9818 | 214 | 301 | 0.6181 | 6.1264 | – | – | – | – | – | –
10 | COC(=O)CC1(O)C=CC(=O)C(Cl)=C1 (stereo not drawn) [Compound 4c, Methyl 2-(3-chloro-1-hydroxy-4-oxocyclohexa-2,5-dien-1-yl)acetate] | 47 | 0.3676 | 7.0639 | 440 | 837 | 0.4433 | 5.8133 | – | – | – | – | – | –
11 | O=C1C=CC(=O)c2cc(F)c(F)cc21 [Compound 5e, 6,7-Difluoro-1,4-dihydronaphthalene-1,4-dione] | 166 | 2.470 | 5.1389 | 4800 | 689 | 2.7178 | 4.5208 | – | 128 to 130 | – | – | – | –
12 | CCN(CC)CCCC(C)Nc1ccnc2cc(Cl)ccc12 (stereo not drawn) [Chl., chloroquine, reference compound] | – | – | – | – | – | – | – | – | – | 91100 | – | – | 2
13 | COC(=O)/C=C/C1(O)C=CC(=O)C=C1 [Compound 4i, Methyl (2E)-3-(1-hydroxy-4-oxocyclohexa-2,5-dien-1-yl)prop-2-enoate] | 108 | 0.0687 | – | 569 | 657 | 0.07742 | 6.1355 | – | – | – | – | – | –
14 | COC(=O)CC1(O)C=C(Cl)C(=O)C(Cl)=C1 [Compound 4e, Methyl 2-(3,5-dichloro-1-hydroxy-4-oxocyclohexa-2,5-dien-1-yl)acetate] | 10 | 0.9339 | 7.3167 | 116 | 245 | 1.1301 | 5.9275 | – | – | – | – | – | –
15 | Nc1nc(N)nc(Nc2ccc([As]3SCC(CO)S3)cc2)n1 (stereo not drawn) [Mel., melarsoprol, reference compound] | – | – | – | – | – | – | – | – | – | 24200 | 4 | – | –
